Measured values as given in paper PMC12116762, “Topobexin targets the Topoisomerase II ATPase domain for beta isoform-selective inhibition and anthracycline cardioprotection” (Nature Communications, 2025).
Several values for one entry are separate records, joined by “and”; a condition that tells them apart may be missing. Identical values can stand only once. Like-named read-outs stand apart in the source and are kept apart here.

Key:
recombinant human TOP2A [1] = target: T1, recombinant human TOP2A (Homo sapiens, UniProt P11388); experiment: DNA decatenation assay, recombinant TOP2A; format: biochemical; settings: for IC50: enzyme expressed in HEK293F, n=3
T1 construct: Using recombinant full-length human TOP2A and TOP2B enzymes; YFP (N, cleaved yes); made in house; host or cells: HEK293F
Procedure: The human topoisomerase II decatenation assay was performed to determine the inhibitory effects of BNS-22 and new compounds as previously described with minor modifications[14],[36]. The assay was performed using recombinant human TOP2A or TOP2B generated using the HEK293F YFP-tag expression system as previously described[18],[19],[36]. Briefly, plasmids encoding YFP-TOP2A or YFP-TOP2B were transfected into HEK293F cells (Catalog number 11625019, Thermofisher Scientific), and TOP2 proteins were isolated from cell lysates by anti-YFP nanobody affinity chromatography. After elution by TEV protease cleavage, TOP2 proteins were FPLC purified by sequential cation exchange and size exclusion chromatography. Plasmid encoding TOP2B C88Y was generated by round-the-horn PCR mutagenesis and the sequence was verified by full-plasmid sequencing. Purified TOP2 proteins were stored in a storage buffer containing 20 mM HEPES pH 7.5, 500 mM NaCl, 0.5 mM TCEP, 25% (v/v) glycerol at -80 °C. For decatenation assays, purified TOP2 proteins were incubated with 200 ng kDNA (Topogen) in a reaction buffer containing 50 mM Tris−HCl (pH 8), 100 mM NaCl, 10 mM MgCl2, 0.5 mM DTT, 2 mM ATP, 0.1 mM tris(2-carboxyethyl)phosphine (TCEP), 5% (v/v) glycerol, 70 μg/mL bovine serum albumin, and 1/10 volume of each compound diluted in 10% DMSO (final DMSO concentration 1%) for 40 min at 37 °C. The reaction was then stopped by the addition of gel loading buffer (0.5 volumes of 60% (w/v) glycerol, 60 mM EDTA, 20 mM Tris−HCl (pH 7.5), 0.5 mg/mL bromophenol blue) and the samples were placed on ice. Reaction products were resolved by agarose gel electrophoresis in TBE buffer containing GelRed stain (Biotium). Gels were visualized using an iBright CL1000 (Thermofisher Scientific). Band intensities were quantified using FIJI, and the signal of the treated samples was normalized to the value of the control (untreated sample; 100%) present on the same gel. The normalized signal of three independent measurements was then expressed as mean ± SD. Each presented data point was obtained from distinct sample. Normalized values were plotted as a function of inhibitor concentration to determine IC50 values by nonlinear regression with variable slope using Prism 9 (GraphPad).

recombinant human TOP2A [2] = target: T1, recombinant human TOP2A; experiment: In vitro ATPase activity of TOP2A (coupled assay); format: biochemical; settings: for remaining activity at 0.03125 µM / remaining activity at 0.0625 µM / remaining activity at 0.125 µM / remaining activity at 0.25 µM / remaining activity at 0.5 µM / remaining activity at 1 µM / remaining activity at 2 µM / remaining activity at 4 µM / remaining activity at 8 µM / Normalized % TOP2A activity, ATPase / remaining activity at 16 µM: independent replicates; for IC50: n=3
Procedure: Topoisomerase proteins were diluted to 500 nM in storage buffer containing 20 mM HEPES pH 7.5, 500 mM NaCl, 0.5 mM TCEP, 25% glycerol, and 0.2 mg/mL BSA prior to use. A coupled assay was used to measure TOP2-catalyzed ATP hydrolysis in vitro[37] in Costar 96-well plates (Corning Incorporated). […] Reaction plates were pre-warmed to 30 °C for 5 min and ATP was added last to initiate the reaction. The reaction plate was placed in a CLARIOstarPlus plate reader (BMG Labtech) to measure NADH fluorescence at 30 °C every 30 s over 120 cycles using a 340-60 excitation filter and a 480-100 emission filter. Background fluorescence signals calculated from wells containing no ATP were subtracted from each measurement. The slope of NADH fluorescence decay in each well was calculated using the MARS software (BMG Labtech) and reaction wells that lacked topoisomerase inhibitor to account for photobleaching of NADH fluorescence served as background subtraction. Each presented data point was obtained from distinct sample. Values were normalized to untreated controls and plotted as a function of inhibitor concentration to determine IC50 values using Prism 9 (GraphPad).

[3] = 0.03125 μM, read-out: Normalized % TOP2A activity, ATPase
[4] = 0.0625 μM, read-out: Normalized % TOP2A activity, ATPase
[5] = 0.125 μM, read-out: Normalized % TOP2A activity, ATPase
[6] = 0.25 μM, read-out: Normalized % TOP2A activity, ATPase
[7] = 1 μM, read-out: Normalized % TOP2A activity, ATPase
[8] = 4 μM, read-out: Normalized % TOP2A activity, ATPase
[9] = 8 μM, read-out: Normalized % TOP2A activity, ATPase
[10] = 16 μM, read-out: Normalized % TOP2A activity, ATPase

T1 sequence (P11388 whole entry): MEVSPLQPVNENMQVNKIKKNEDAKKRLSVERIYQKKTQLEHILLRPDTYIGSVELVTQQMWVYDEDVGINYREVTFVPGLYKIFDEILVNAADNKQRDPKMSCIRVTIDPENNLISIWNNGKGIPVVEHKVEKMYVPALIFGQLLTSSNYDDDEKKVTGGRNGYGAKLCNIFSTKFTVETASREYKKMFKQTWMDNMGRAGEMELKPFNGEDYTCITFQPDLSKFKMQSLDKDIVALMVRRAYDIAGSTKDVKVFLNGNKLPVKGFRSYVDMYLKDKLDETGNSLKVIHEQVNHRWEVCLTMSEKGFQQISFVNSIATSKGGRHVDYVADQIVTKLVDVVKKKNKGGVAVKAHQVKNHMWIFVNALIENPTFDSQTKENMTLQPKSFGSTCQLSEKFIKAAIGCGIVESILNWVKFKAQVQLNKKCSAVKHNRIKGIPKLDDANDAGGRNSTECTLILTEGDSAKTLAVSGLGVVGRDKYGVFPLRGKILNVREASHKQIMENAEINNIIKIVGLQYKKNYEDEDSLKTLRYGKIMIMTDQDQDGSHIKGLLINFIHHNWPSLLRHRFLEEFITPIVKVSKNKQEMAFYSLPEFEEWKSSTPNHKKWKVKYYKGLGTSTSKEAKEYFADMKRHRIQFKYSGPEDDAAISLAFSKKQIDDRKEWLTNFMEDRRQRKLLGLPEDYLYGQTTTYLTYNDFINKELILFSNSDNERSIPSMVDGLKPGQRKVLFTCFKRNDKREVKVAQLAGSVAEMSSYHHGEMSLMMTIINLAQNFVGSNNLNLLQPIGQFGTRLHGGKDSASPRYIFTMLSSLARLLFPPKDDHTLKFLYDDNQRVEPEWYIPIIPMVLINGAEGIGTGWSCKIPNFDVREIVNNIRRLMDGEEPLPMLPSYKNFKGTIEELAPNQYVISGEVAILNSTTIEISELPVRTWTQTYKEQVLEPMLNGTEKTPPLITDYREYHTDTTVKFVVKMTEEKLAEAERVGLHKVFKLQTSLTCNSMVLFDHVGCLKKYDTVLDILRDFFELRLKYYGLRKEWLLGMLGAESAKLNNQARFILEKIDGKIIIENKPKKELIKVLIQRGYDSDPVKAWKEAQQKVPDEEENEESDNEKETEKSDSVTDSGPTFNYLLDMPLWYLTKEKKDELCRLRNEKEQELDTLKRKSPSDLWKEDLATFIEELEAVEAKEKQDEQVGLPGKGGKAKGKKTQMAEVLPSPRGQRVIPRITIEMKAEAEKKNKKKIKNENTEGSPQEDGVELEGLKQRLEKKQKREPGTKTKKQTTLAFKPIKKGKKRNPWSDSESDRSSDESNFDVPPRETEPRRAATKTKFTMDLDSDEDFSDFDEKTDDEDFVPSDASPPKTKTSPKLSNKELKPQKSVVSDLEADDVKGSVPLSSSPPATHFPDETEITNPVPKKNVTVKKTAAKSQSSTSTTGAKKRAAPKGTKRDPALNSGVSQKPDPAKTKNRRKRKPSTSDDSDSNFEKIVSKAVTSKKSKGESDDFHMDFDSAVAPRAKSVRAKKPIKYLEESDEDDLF

CCCc1cc(=O)oc2c(C(=O)N3CCCc4ccccc43)c(OCCO)ccc12 [5c]
IC50 (recombinant human TOP2A [1]): 3.21 µM
remaining activity at 0.03125 µM (recombinant human TOP2A [2]; [3]): 97.4%
remaining activity at 0.0625 µM (recombinant human TOP2A [2]; [4]): 86.8%
remaining activity at 0.125 µM (recombinant human TOP2A [2]; [5]): 79.9%
remaining activity at 0.25 µM (recombinant human TOP2A [2]; [6]): 62.7%
remaining activity at 0.5 µM (recombinant human TOP2A [2]; 0.5 μM, read-out: Normalized % TOP2A activity, ATPase): 45.9%
remaining activity at 1 µM (recombinant human TOP2A [2]; [7]): 25.8%
remaining activity at 2 µM (recombinant human TOP2A [2]; 2 μM, read-out: Normalized % TOP2A activity, ATPase): 11.6%
remaining activity at 4 µM (recombinant human TOP2A [2]; [8]): 6.58%
remaining activity at 8 µM (recombinant human TOP2A [2]; [9]): 3.17%
IC50 (recombinant human TOP2A [2]): 1.54 µM

CCCc1cc(=O)oc2c(C(=O)N3CCCc4ccccc43)c(OC)cc(OC)c12 [BNS-22]
Normalized % TOP2A activity, decatenation (recombinant human TOP2A [1]; 0.029 μM, independent replicates): 129.2% and 104.9% and 108.1%
Normalized % TOP2A activity, decatenation (recombinant human TOP2A [1]; 0.059 μM, independent replicates): 115.3% and 107.3% and 87.18%
Normalized % TOP2A activity, decatenation (recombinant human TOP2A [1]; 0.117 μM, independent replicates): 112.3% and 85.14% and 77.75%
Normalized % TOP2A activity, decatenation (recombinant human TOP2A [1]; 0.234 μM, independent replicates): 113.6% and 104.1% and 111.1%
Normalized % TOP2A activity, decatenation (recombinant human TOP2A [1]; 0.469 μM, independent replicates): 107.6% and 108.2% and 94.85%
Normalized % TOP2A activity, decatenation (recombinant human TOP2A [1]; 0.938 μM, independent replicates): 110.1% and 99.05% and 142.1%
Normalized % TOP2A activity, decatenation (recombinant human TOP2A [1]; 1.875 μM, independent replicates): 103.6% and 97.25% and 87.84%
Normalized % TOP2A activity, decatenation (recombinant human TOP2A [1]; 3.750 μM, independent replicates): 92.41% and 84.64% and 69.95%
Normalized % TOP2A activity, decatenation (recombinant human TOP2A [1]; 7.500 μM, independent replicates): 58.26% and 36.7% and 30.82%
Normalized % TOP2A activity, decatenation (recombinant human TOP2A [1]; 15.000 μM, independent replicates): 19.52% and 10.3% and 12.12%
Normalized % TOP2A activity, decatenation (recombinant human TOP2A [1]; 30.000 μM, independent replicates): 7.598% and 6.508% and 9.979%
IC50 (recombinant human TOP2A [1]): 6.51 µM
Normalized % TOP2A activity, ATPase (recombinant human TOP2A [2]; 0.03125 μM): 106.5339% and 96.82% and 104.97%
Normalized % TOP2A activity, ATPase (recombinant human TOP2A [2]; 0.0625 μM): 99.93% and 96.81% and 104.654%
Normalized % TOP2A activity, ATPase (recombinant human TOP2A [2]; 0.125 μM): 97.92% and 87.09% and 103.8686%
Normalized % TOP2A activity, ATPase (recombinant human TOP2A [2]; 0.25 μM): 84.39% and 86.41% and 95.01%
Normalized % TOP2A activity, ATPase (recombinant human TOP2A [2]; 0.5 μM): 68.7163% and 74.39% and 48.12%
Normalized % TOP2A activity, ATPase (recombinant human TOP2A [2]; 1 μM): 44.71% and 47.48% and 56.42%
Normalized % TOP2A activity, ATPase (recombinant human TOP2A [2]; 2 μM): 21.32% and 23.49% and 28.53%
Normalized % TOP2A activity, ATPase (recombinant human TOP2A [2]; 4 μM): 7.817% and 9.176% and 12.94%
Normalized % TOP2A activity, ATPase (recombinant human TOP2A [2]; 8 μM): 4.538% and 5.681% and 5.457%
Normalized % TOP2A activity, ATPase (recombinant human TOP2A [2]; 16 μM): 3.325% and 1.312% and 2.254%
Normalized % TOP2A activity, ATPase (recombinant human TOP2A [2]; 32 μM): 1.897% and 0.9839% and 2.191%
IC50 (recombinant human TOP2A [2]): 1.27 µM

C[C@@H](CN1CC(=O)NC(=O)C1)N1CC(=O)NC(=O)C1 [dexrazoxane]
remaining activity at 0.059 µM (recombinant human TOP2A [1]; 0.059 μM, independent replicates, read-out: Normalized % TOP2A activity, decatenation): 112%
remaining activity at 0.469 µM (recombinant human TOP2A [1]; 0.469 μM, independent replicates, read-out: Normalized % TOP2A activity, decatenation): 114%
remaining activity at 0.938 µM (recombinant human TOP2A [1]; 0.938 μM, independent replicates, read-out: Normalized % TOP2A activity, decatenation): 94.4%
remaining activity at 1.875 µM (recombinant human TOP2A [1]; 1.875 μM, independent replicates, read-out: Normalized % TOP2A activity, decatenation): 68.7%
remaining activity at 7.5 µM (recombinant human TOP2A [1]; 7.500 μM, independent replicates, read-out: Normalized % TOP2A activity, decatenation): 33.6%
IC50 (recombinant human TOP2A [1]): 3.35 µM
remaining activity at 0.125 µM (recombinant human TOP2A [2]; [5]): 90.6%
remaining activity at 0.25 µM (recombinant human TOP2A [2]; [6]): 86.6%
remaining activity at 1 µM (recombinant human TOP2A [2]; [7]): 62.9%
remaining activity at 4 µM (recombinant human TOP2A [2]; [8]): 29.5%
remaining activity at 8 µM (recombinant human TOP2A [2]; [9]): 19%
remaining activity at 16 µM (recombinant human TOP2A [2]; [10]): 14.4%
IC50 (recombinant human TOP2A [2]): 2.27 µM

CCCc1cc(=O)oc2c(C(=O)N3CCCc4ccccc43)c(OCCN3CCN(C)CC3)ccc12 [topobexin (9)]
remaining activity at 0.02 µM (recombinant human TOP2A [1]; 0.02 μM, independent replicates, read-out: Normalized % TOP2A activity, decatenation): 87.1%
remaining activity at 0.313 µM (recombinant human TOP2A [1]; 0.313 μM, independent replicates, read-out: Normalized % TOP2A activity, decatenation): 96.1%
remaining activity at 0.625 µM (recombinant human TOP2A [1]; 0.625 μM, independent replicates, read-out: Normalized % TOP2A activity, decatenation): 91.5%
IC50 (recombinant human TOP2A [1]): 4.8 µM
remaining activity at 0.03125 µM (recombinant human TOP2A [2]; [3]): 89.4%
remaining activity at 0.0625 µM (recombinant human TOP2A [2]; 0.0625 μM, normalized to 0 drug, read-out: Normalized % TOP2A activity): 89.1%
remaining activity at 0.0625 µM (recombinant human TOP2A [2]; [4]): 92.8%
remaining activity at 0.125 µM (recombinant human TOP2A [2]; 0.125 μM, normalized to 0 drug, read-out: Normalized % TOP2A activity): 88.8%
remaining activity at 0.25 µM (recombinant human TOP2A [2]; 0.25 μM, normalized to 0 drug, read-out: Normalized % TOP2A activity): 87.4%
remaining activity at 0.25 µM (recombinant human TOP2A [2]; [6]): 79.6%
remaining activity at 0.5 µM (recombinant human TOP2A [2]; 0.5 μM, normalized to 0 drug, read-out: Normalized % TOP2A activity): 81.9%
remaining activity at 1 µM (recombinant human TOP2A [2]; 1 μM, normalized to 0 drug, read-out: Normalized % TOP2A activity): 73.3%
remaining activity at 2 µM (recombinant human TOP2A [2]; 2 μM, normalized to 0 drug, read-out: Normalized % TOP2A activity): 53.8%
remaining activity at 4 µM (recombinant human TOP2A [2]; 4 μM, normalized to 0 drug, read-out: Normalized % TOP2A activity): 26.2%
remaining activity at 8 µM (recombinant human TOP2A [2]; 8 μM, normalized to 0 drug, read-out: Normalized % TOP2A activity): 5.71%
remaining activity at 8 µM (recombinant human TOP2A [2]; [9]): 28.6%
remaining activity at 16 µM (recombinant human TOP2A [2]; [10]): 14.4%
IC50 (recombinant human TOP2A [2]): 4.09 µM
